Consider 9 molecules from patent US10981932B2, “Macrocyclic indole derivatives” (Bayer Aktiengesellschaft, priority 2016, dated 2021).

Counter-ions that a name gives are not always drawn. Like-named read-outs stand apart in the source and are kept apart here.

One may read the EC50 as the concentration that produces a half-maximal response.

Data set [1] addresses MCL-1 (Homo sapiens, UniProt Q07820). The data set can be described thus: Protein-protein interaction assay MCL-1/Noxa BH3 peptide (MCL-1 assay), TR-FRET. The class given is binding. The note with it: MBP-MCL-1 / Noxa BH3-derived peptide, median. In a few lines: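 MBP-MCL-1 (1 nM final) was preincubated 10 min at 22 °C with compounds (11 concentrations, 0.1 nM–20 μM, duplicates) in Tris pH 7 buffer with NaCl, KF, Tween-20, DTT and BGG. After 1 h at 22 °C in the dark plus overnight at 4 °C, anti-MBP Eu-cryptate/streptavidin-XL665 TR-FRET was read; IC50 came from a 4-parameter fit.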

Data set [2] relates to SUDHL5. Description: Induction of caspase-3/7 activity (Caspase-Glo 3/7), SUDHL5. Type of data set: cell-based. To be noted: caspase-3/7 induction, SUDHL5 cells, 3 h treatment, median. The essentials: (§1)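 Caspase-Glo 3/7 luminescence measured after 3 h compound exposure at 37 °C in SUDHL10 and SUDHL5 cells. EC50 values come from background-corrected signals, with curve bottom set to 1 and plateau set to maximal induction by the reference compound.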

Data set [3] has as its system SUDHL10. The data set can be described thus: Induction of caspase-3/7 activity (Caspase-Glo 3/7), SUDHL10. The class given is cell-based. The note with it: caspase-3/7 induction, SUDHL10 cells, 3 h treatment, median. The essentials: as §1
Data set [4] relates to SUDHL5. The data set can be described thus: Anti-proliferative effect (CellTiter-Glo, 72 h), SUDHL5. To be noted: SUDHL5 cells, antiproliferation, median, read-out: Antiproli SUDHL5 [M] (median). Type of data set: cell-based. In a few lines: (§2)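 Anti-proliferative activity is derived from ATP-based luminescence (CellTiter-Glo) in cells exposed to compound for 72 h at 37 °C, set against a time zero plate read at seeding.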

Data set [5] relates to SUDHL10. Description: Anti-proliferative effect (CellTiter-Glo, 72 h), SUDHL10. The class given is cell-based. The note with it: Homo sapiens, SU-DHL10, 72 h, SUDHL10 cells, antiproliferation, median, read-out: Antiproli SUDHL10 [M] (median). In a few lines:
as §2

Data set [6] concerns A2780. Description: Anti-proliferative effect (CellTiter-Glo, 72 h), A2780. To be noted: A2780 cells, median, read-out: IC50 antiproliferation assay A2780 [M] (median). Type of data set: cell-based. The essentials: as §2
(In ATP-based viability assays light output follows the ATP content of the culture.)

For data set [7], the system named is MV-4-11. Description: Anti-proliferative effect (CellTiter-Glo, 72 h), MV-4-11. The note with it: MV-4-11 cells, median, read-out: IC50 antiproliferation assay MV-4-11 [M] (median). The class given is cell-based. The essentials: as §2
Data set [8] concerns SUDHL5. The data set can be described thus: Induction of cytotoxicity (CellTiter-Glo, 5 h), SUDHL5.
In data set [9] the test system is SUDHL10. The data set can be described thus: Induction of cytotoxicity (CellTiter-Glo, 5 h), SUDHL10.
The mark [10] stands for this setting: Homo sapiens, SU-DHL-5, 72 h, 72 h incubation.
Where [11] appears, read: Homo sapiens, SU-DHL-5, 5 h, read-out: Cytotox SUDHL5 [M] (median), SUDHL5 cells, cytotoxicity induction, CellTiter-Glo, 5 h incubation, median.
[12] abbreviates: Homo sapiens, SU-DHL10, 5 h, read-out: Cytotox SUDHL10 [M] (median), SUDHL10 cells, cytotoxicity induction, CellTiter-Glo, 5 h incubation, median.
Where [13] appears, read: Homo sapiens, SU-DHL-5, 72 h, 72 h.
Where [14] appears, read: Homo sapiens, SU-DHL-5, 5 h, read-out: Cytotox SUDHL5 [M] (median), SUDHL5 cells, cytotoxicity induction, CellTiter-Glo, 5 h, median.
Where [15] appears, read: Homo sapiens, SU-DHL10, 5 h, read-out: Cytotox SUDHL10 [M] (median), SUDHL10 cells, cytotoxicity induction, CellTiter-Glo, 5 h, median.
Where [16] appears, read: read-out: Cytotox SUDHL5 [M] (median), SUDHL5 cells, cytotoxicity induction, CellTiter-Glo, 5 h, median.
Where [17] appears, read: read-out: Cytotox SUDHL10 [M] (median), SUDHL10 cells, cytotoxicity induction, CellTiter-Glo, 5 h, median.

Chain of MCL-1 (Q07820 whole entry): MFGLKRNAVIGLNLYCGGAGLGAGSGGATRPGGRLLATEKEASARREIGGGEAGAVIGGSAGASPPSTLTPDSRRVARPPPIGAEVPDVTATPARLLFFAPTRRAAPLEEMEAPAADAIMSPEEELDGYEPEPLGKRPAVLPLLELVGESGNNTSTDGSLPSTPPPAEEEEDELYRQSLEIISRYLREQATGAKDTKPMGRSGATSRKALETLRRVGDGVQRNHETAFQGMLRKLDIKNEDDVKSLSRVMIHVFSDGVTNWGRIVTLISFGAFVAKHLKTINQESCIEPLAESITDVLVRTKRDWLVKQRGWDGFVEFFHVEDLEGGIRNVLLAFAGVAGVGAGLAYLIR

Take `O=C(O)c1c(CCCOc2cccc3ccccc23)c2cccc3c2n1CCCCOCc1nn2c(c1-3)CCCC2` (racemic) [Example 253, (rac)-1-[3-(naphthalen-1-yloxy)propyl]-4,5,6,7,12,13,14,15-octahydro-9H-pyrido[1″,2″:1′,5′]pyrazolo[4′,3′:9,10][1,6]oxazacycloundecino[8,7,6-hi]indole-2-carboxylic Acid]: the IC50 in data set [1] stood at 0.00867 µM; in data set [4] (setting [10]) it was 5.74e-06 M; in data set [5] (72 h incubation), 1.17e-05 M; in data set [6] (Homo sapiens, A2780, 72 h), 2.83e-05 M; in data set [7] (Homo sapiens, MV4-11, 72 h) it was 7.59e-06 M; in data set [8] (setting [11]), 6.7e-06 M. The IC50 in data set [9] (setting [12]) was 1.96e-05 M. Also, the EC50 in [2] (Homo sapiens, SU-DHL-5, 3 h) came out at 6.7 µM; in data set [3] (Homo sapiens, SU-DHL10, 3 h), 18.6 µM.

Turning to `Cc1ccc2c(C(C)CCOc3cccc4cc(F)ccc34)c(C(=O)O)n3c2c1-c1c(nn(C)c1C)COCCCC3` (racemic) [Example 276, 7-{4-[(6-fluoronaphthalen-1-yl)oxy]butan-2-yl}-2,3,4-trimethyl-2,10,11,12,13,15-hexahydropyrazolo[4′3′:9,10][1,6]oxazacycloundecino[8,7,6-hi]indole-8-carboxylic Acid], the IC50 turned out to be 0.00756 µM in data set [1]; 5.85e-06 M in [4] (setting [10]); 7.32e-06 M in data set [5] (72 h incubation); 1.22e-05 M in [6] (Homo sapiens, A2780, 72 h); 1.2e-05 M in [7] (Homo sapiens, MV4-11, 72 h); 5.23e-06 M in [8] (setting [11]). Also, in data set [9] (setting [12]), the IC50 is 1.03e-05 M. Besides, the EC50 in data set [2] (Homo sapiens, SU-DHL-5, 3 h) came out at 4.07 µM; in [3] (Homo sapiens, SU-DHL10, 3 h), 10.3 µM.

For the molecule `Cc1c2c(nn1CCN1CCOCC1)COCCCCn1c(C(=O)O)c(CCCOc3cccc4cc(F)ccc34)c3cccc-2c31` (racemic) [Example 284, (rac)-7-{3-[(6-fluoronaphthalen-1-yl)oxy]propy}-3-methyl-2-[2-(morpholin-4-yl)ethyl]-2,10,11,12,13,15-hexahydropyrazolo[4′,3′:9,10][1,6]oxazacycloundecino[8,7,6-hi]indole-8-carboxylic Acid], the IC50 turned out to be 0.00221 µM in data set [1]; 2.82e-06 M in [4] (setting [10]); 7.01e-06 M in [5] (72 h incubation); 1.52e-05 M in data set [6] (Homo sapiens, A2780, 72 h); 8.62e-06 M in data set [7] (Homo sapiens, MV4-11, 72 h); 2.46e-06 M in data set [8] (setting [11]). The IC50 in data set [9] (setting [12]) was determined as 4.25e-06 M. Also, the half-maximal effective concentration (EC50) in data set [2] (Homo sapiens, SU-DHL-5, 3 h) amounted to 1.84 µM; in [3] (Homo sapiens, SU-DHL10, 3 h), 3.73 µM.

For `CCc1nn(C)c2c1-c1cccc3c(CCCOc4cccc5cc(F)ccc45)c(C(=O)O)n(c13)CCCCOC2` (racemic) [Example 287, (rac)-3-ethyl-7-{3-[(6-fluoronaphthalen-1-yl)oxy]propyl}-1-methyl-1,10,11,12,13,15-hexahydropyrazolo[4′,3′:9,10][1,6]oxazacycloundecino[8,7,6-hi]indole-8-carboxylic Acid], the IC50 in data set [1] came out at 0.00206 µM; in data set [4] (setting [13]) it was 7.2e-06 M; in [5] (72 h), 8.1e-06 M; in data set [6] (Homo sapiens, A2780, 72 h) it was 3.05e-05 M; in data set [7] (Homo sapiens, MV4-11, 72 h) it was 1.49e-05 M; in [8] (setting [14]), 5.19e-06 M. For the same molecule, the IC50 in data set [9] (setting [15]) is 1.58e-05 M. The EC50 in data set [2] (Homo sapiens, SU-DHL-5, 3 h) worked out at 5.14 µM; in data set [3] (Homo sapiens, SU-DHL10, 3 h), 13 µM.

As for `COc1ccc2c(CCCOc3cccc4ccccc34)c(C(=O)O)n3c2c1-c1c(nn(C)c1C)COCCCC3` (single isomer, unassigned; enantiomer 2) [Example 351, 4-methoxy-2,3-dimethyl-7-[3-(naphthalen-1-yloxy)propyl]-2,10,11,12,13,15-hexahydropyrazolo[4′,3′:9,10][1,6]oxazacycloundecino[8,7,6-hi]indole-8-carboxylic acid-N-ethylethanamine Salt (Enantiomer 2)], the IC50 in data set [1] was 2.03 µM; in [4] (72 h), 2.07e-05 M; in data set [6], over 3.3e-05 M; in data set [7], over 3.3e-05 M; in [8] (setting [16]) it was over 3.3e-05 M; in data set [9] (setting [17]) it was over 3.3e-05 M. Also, the EC50 in [2] and in [3] was over 33 µM throughout.

For `COc1ccc2c(CCCOc3cccc4ccccc34)c(C(=O)O)n3c2c1-c1c(C)nn(C)c1COCCCC3` (single isomer, unassigned; enantiomer 2) [Example 353, 4-methoxy-1,3-dimethyl-7-[3-(naphthalen-1-yloxy)propyl]-1,10,11,12,13,15-hexahydropyrazolo[4′,3′:9,10][1,6]oxazacycloundecino[8,7,6-hi]indole-8-carboxylic Acid Ammonium Salt (Enantiomer 2)], the IC50 in data set [1] was 1.28 µM; in [4] (72 h), 8.32e-06 M; in data set [6] it was 2.17e-05 M; in data set [7], 3.11e-05 M; in [8] (setting [16]), over 3.3e-05 M; in data set [9] (setting [17]), over 3.3e-05 M. Further, the EC50 in data set [2] and in [3] was over 33 µM each time.

On to `Cc1nn(C)c2c1-c1cccc3c(CCCOc4cccc5ccccc45)c(C(=O)O)n(c13)CCCCCN(C)C2` [Example 237, (rac)-1,3,15-Trimethyl-7-[3-(naphthalen-1-yloxy)propyl]-1,10,11,12,13,14,15,16-octahydropyrazolo[4′,3′:4,5][1,7]diazacyclododecino[3,2,1-hi]indole-8-carboxylic Acid], for which the IC50 was 0.00499 µM in [1]; 5.65e-06 M in [4] (setting [10]); 1.9e-05 M in data set [6] (Homo sapiens, A2780, 72 h); 1.35e-05 M in data set [7] (Homo sapiens, MV4-11, 72 h); 6.6e-06 M in [8] (setting [11]); 1.18e-05 M in [9] (setting [12]). The EC50 amounted to 5.55 µM in data set [2] (Homo sapiens, SU-DHL-5, 3 h) and 15.7 µM in data set [3] (Homo sapiens, SU-DHL10, 3 h).

On to `Cc1nn(C)c2c1-c1cccc3c(CCCOc4cccc5c4CCCC5)c(C(=O)O)n(c13)CCCCCN(C)C2` [Example 240, (rac)-1,3,15-Trimethyl-7-[3-(5,6,7,8-tetrahydronaphthalen-1-yloxy)propyl]-1,10,11,12,13,14,15,16-octahydropyrazolo[4′,3′:4,5][1,7]diazacyclododecino[3,2,1-hi]indole-8-carboxylic Acid], for which the IC50 in data set [1] is 0.00885 µM; in data set [4] (setting [10]), 1.19e-05 M; in data set [6] (Homo sapiens, A2780, 72 h) it was over 3.3e-05 M; in data set [7] (Homo sapiens, MV4-11, 72 h), 2.56e-05 M; in data set [8] (setting [11]) it was 1.26e-05 M; in [9] (setting [12]), over 3.3e-05 M. Also, the concentration giving a half-maximal response (EC50) is 11.6 µM in [2] (Homo sapiens, SU-DHL-5, 3 h) and over 33 µM in data set [3] (Homo sapiens, SU-DHL10, 3 h).

As to `Cc1nn(C)c2c1-c1cccc3c(CCCOc4cccc5cc(C(F)(F)F)ccc45)c(C(=O)O)n(c13)CCCCOC2` [Example 364, (rac)-10,12-dimethyl-1-(3-((6-(trifluoromethyl)naphthalen-1-yl)oxy)propyl) -4,5,67,9,10-hexahydropyrazolo[4′,3′:9,10][1,6]oxaazacycloundecino[8,7,6-hi]indole-2-carboxylic Acid], the IC50 in data set [1] is 0.0633 µM; in [4] (setting [13]), 9.54e-06 M; in [6] (Homo sapiens, A2780, 72 h) it was 1.69e-05 M; in [7] (Homo sapiens, MV4-11, 72 h), 2.42e-05 M; in data set [8] (setting [14]), 1.92e-05 M; in data set [9] (setting [15]) it was over 3.3e-05 M. Moreover, in data set [9] (setting [17]), the IC50 came to 2.04e-05 M. Moreover, the EC50 in data set [2] (Homo sapiens, SU-DHL-5, 3 h) is 24.2 µM; in data set [3] (Homo sapiens, SU-DHL10, 3 h) it was over 33 µM.
